Test results as given in patent publication US20160206633A1, “dhS1P AND USE OF SAME AS AN ANTICANCER THERAPEUTIC AND IMMUNOMODULATOR” (Penn State Research Foundation, Inc., priority 2013, published 2016).

How the values were obtained:
[1] = test system: Gr-1+CD11b+ MDSC-like cells from MaFIA mice; experiment: Lineage tracing: MDSC-like cells from tumor-bearing MaFIA mice exposed to dhS1P, flow cytometry; assay type: cell-based, MaFIA mice (C57BL/6J background); set-up: dose or concentration left out as unconfirmed
From the text: Gr-1+CD1 b+MDSC-like cells were isolated by high-speed cell sorting (85-95% purity) from the splenocytes of tumor-bearing MaFIA (Macrophage Fas-Induced Apoptosis) mice. These mice are on the C57BL/6J background and contain a transgene expressing both an inducible apoptosis feature as well as EGFP (enhanced green fluorescent protein). This transgene is expressed from the Csfr1 promoter (CD115), which restricts expression of the transgene to the myeloid lineage. Isolated MDSC-like cells were exposed to dhS1P ([…]) for 24 hours, and flow cytometry was performed to confirm both the disappearance of MDSC-like cells (Gr-1+CD11b+), and the appearance of a lymphocyte population (CD19+CD45R B220+). Lineage tracing using the EGFP feature of the transgene verified that dhS1P-induced lymphocytes (blue population) are EGFP negative and therefore not of myeloid-origin. This is in direct contrast with the EGFP positive MDSC-like cells (red population).

[2] = test system: murine Panc-02 pancreatic cancer cells; experiment: Injection of BSA-conjugated sphingolipids into mice with subcutaneous Panc-02 tumors; assay type: in vivo
From the text: (A) Splenic IMCs (Gr-1+CD11b+, also defined as MDSC: myeloid-derived suppressor cells) were isolated from subcutaneous human MDA-MB-231 breast tumor-bearing athymic nude mice, treated with or without dhS1P (to induce the expansion of CD19+CD45R B220+ cells: B-cells), and adoptively transferred into subcutaneous human MDA-MB-231 breast tumor-bearing athymic nude mice before monitoring tumor growth. ANOVA, **p<0.05 compared to PBS control, n≧6. (B) Splenic IMCs were isolated from orthotopic human BxPC-3 pancreatic tumor-bearing athymic nude mice, treated with or without dhS1P, and adoptively transferred into orthotopic human BxPC-3 pancreatic tumor-bearing athymic nude mice before monitoring survival. Logrank test, *p<0.05, n=5. (C) Tumor growth following BSA (lipid carrier control), sphingosine-1-phosphate (S1P), or dhS1P injection every other day, was monitored in C57BL/6J mice engrafted with subcutaneous murine Panc-02 pancreatic cancer cells. ANOVA, **p<0.05 compared to BSA control, n≧6.
Orthotopic pancreatic cancer and subcutaneous breast cancer tumors were established in athymic nude, NOD.CB17-Prkdcscid/J, BALB/cJ, or C57BL/6J mice as previously described (8, 9), with minor modifications. All cell lines used in animal and cellular studies, prior to any modification, were originally obtained from the American Type Culture Collection (Manassas, Va.). For orthotopic BxPC-3-GFP human pancreatic cancer xenografts, 4-6 week old female athymic mice were fully anesthetized with a mixture of ketamine-HCl (129 mg/kg) and xylazine (4 mg/kg) injected intramuscularly. A small incision was made in the left flank, the peritoneum was dissected and the pancreas exposed. Using a 27-gauge needle, 2.5×10^6 cells, prepared in 0.1 mL of Hank's balanced salt solution, were injected into the pancreas. For experimental lung-metastatic osteosarcoma xenografts, 4-6 week old female athymic nude mice were tail vein-injected with 2.5×10^6 human SAOS-2-LM7 cells. […] Tumor size was measured by caliper measurement. […]

With `CCCCCCCCCCCCCCC[C@@H](O)[C@@H](N)COP(=O)(O)O` [dhS1P, dihydrosphingosine-1-phosphate] the “Lymphocyte population (CD19+CD45R B220+)” value [1] was “appearance”, the “MDSC-like cells (Gr-1+CD11b+)” value [1] was “disappearance” and the Life expectancy ([2]; direct injections into pancreatic tumor-bearing mice) was “improved”. The Tumor growth ([2]; subcutaneous Panc-02 in C57BL/6J mice, injection every other day, 0.1 mL of 100 μM, BSA carrier) was “therapeutic effect”.
